# Experiments:
# [1] = system: SH-SY5Y human neuroblastoma cells; experiment: Amyloid-beta peptide neurotoxicity, neuroprotection in SH-SY5Y cells (MTT); type: cell-based; conditions: 24 h
# Description: SH-SY5Y human neuroblastoma cells were obtained from American Type Culture Collection. Cells were maintained at 37 °C in a 5% CO2 humidified atmosphere in DMEM-Glutamax supplemented with heat-inactivated 10% foetal bovine serum and 1% penicillin/streptomycin. All experiments with Aβ1–42 used DMEM-Glutamax without phenol in the media.
# The compounds were dissolved in 100% dimethyl sulphoxide (DMSO) as a 10 mM stock and diluted with culture medium to final concentrations. Aβ1–42 powder (AnaSpec, Inc., San Jose, CA) was dissolved in acetic acid (0.1 M) obtaining a 2 μg/μL stock. Then Aβ1-42 was oligomerised in no phenol red DMEM for 24 h at 37 °C. The final concentration in cells cultures was 5 μM. All dilutions of stock were prepared fresh before addition to the culture medium.
# SH-SY5Y cells were treated with 5 μM Aβ1-42 for 24 h and pre-treated or not for 1 h with increasing concentrations of compounds. After treatment, cultures were processed for a cell viability assay using MTT assay.
# (§1) Cell viability was measured using the 3-(4,5-Dimethylthiazol-2-yl)-2,5-diphenyltetrazolium bromide (MTT) assay, based on the ability of viable cells to reduce yellow MTT to blue formazan. Briefly, cells cultured in 96-well plates and treated with the indicated compounds for 16 h were incubated with MTT (0.5 mg/ml, 4 h) and subsequently solubilised in DMSO. The extent of reduction of MTT was quantified by absorbance measurement at 595 nm according to the manufacturer’s protocol.
# BuChE = target: T1, BuChE (Homo sapiens, UniProt P06276); experiment: Kinetic study of BuChE inhibition (Lineweaver-Burk plots); type: biochemical; parameters: key to Type of Inhibition (BuChE): M: mixed
# T1 construct: BuChE from human serum (EC 3.1.1.8); purchased Sigma; host or cells: human serum (tissue-derived)
# Description: To investigate the mechanism of action of the compounds on AChE or BuChE, a kinetic analysis was performed. The experiments were carried out using combinations of four substrate concentrations and three inhibitor concentrations. Double-reciprocal Lineweaver–Burk plots of the data obtained, in which each point is the mean of three different experiments, were analysed.
# Competitive inhibitors have the same y-intercept as uninhibited enzymes (since Vmax is unaffected by competitive inhibitors the inverse of Vmax also doesn’t change), but there are different slopes and x-intercepts. Non-competitive inhibition produces plots with the same x-intercept as uninhibited enzyme (Km is unaffected) but different slopes and y-intercepts. Uncompetitive inhibition causes different intercepts on both the y- and x-axes, but the same slope. Mixed inhibitors cause intersects above or below the x-axes.
# The Ki, values were determined by fitting the kinetic data to a competitive, non-competitive, or mixed inhibition model by nonlinear regression analysis using GraphPad Prism[35].
# Raw 264.7 cells [2] = experiment: Cell viability (MTT) of Raw 264.7 cells; type: cell-based
# Description: as §1
# [3] = target: T2, AChE from human erythrocytes (Homo sapiens, UniProt P22303); experiment: In vitro AChE inhibition assay (Ellman); type: biochemical; conditions: for inhibition at 10 µM: 10 µM compound, read-out: AChE percentage of inhibition at 10 µM; for IC50: mean ± SEM, 3 experiments, acetylthiocholine substrate
# T2 construct: AChE from human erythrocytes (EC 3.1.1.7); purchased Sigma; host or cells: human erythrocytes (tissue-derived)
# Description: (§2) AChE from human erythrocytes (EC 3.1.1.7) (min. 500 units/mg protein in buffered aqueous solution) and BuChE from human serum (EC 3.1.1.8) (3 units/mg protein, lyophilised powder) were purchased from Sigma.
# (§3) Compounds were evaluated in 100 mM phosphate buffer pH 8.0 at 30 °C, using acetylthiocholine and butyrylthiocholine (0.4 mM) as substrates, respectively. In both cases, 5,5-dithio-bis(2-nitrobenzoic) acid (DTNB, Ellman’s reagent, 0.2 mM) was used and the values of IC50 were calculated by UV spectroscopy from the absorbance changes at 412 nm. Experiments were performed in triplicate.
# BACE1 = target: T3, BACE1 (Homo sapiens, UniProt P56817); experiment: BACE1 enzymatic FRET assay; type: biochemical; conditions: pH 4.5, mean ± SEM
# T3 construct: purchased Invitrogen
# Description: The BACE1 ([…]) assay was carried out according to the manufacturer’s described protocol which is available from Invitrogen[36].
# Briefly, BACE1 in vitro assays were carried out using fluorescence resonance energy transfer (FRET). An APP-based peptide substrate (rhodamine-EVNLDAEFK-quencher, Km of 20 μM) carrying the Swedish mutation and containing rhodamine as a fluorescence donor and a quencher acceptor at each end was used. The intact substrate is weakly fluorescent and becomes highly fluorescent upon enzymatic cleavage. The assays were conducted in 50 mM sodium acetate buffer, pH 4.5, at a final enzyme concentration of 1 U/mL. Inhibitor screening was performed at 10 μM. The mixture was incubated for 60 min at 25 °C under dark conditions and then stopped with 2.5 M sodium acetate. Fluorescence was measured with a FLUOstar Optima (BMG Labtechnologies GmbH, Offenburg, Germany) microplate reader at 545 nm excitation and 585 nm emission. The assay kit was validated by the manufacturer.
# Raw 264.7 cells [4] = experiment: Nitrite determination (Griess) in LPS-stimulated Raw 264.7 cells; type: cell-based, murine; conditions: LPS 0.4 µg/mL, 24 h
# Description: The content of nitrite, one of the end-products of NO oxidation, was monitored by a procedure based on the diazotidation of nitrite by sulphanilic acid (Griess reaction). Twenty-four hours after the incubation of Raw 264.7 cells with 0.4 µg/mL of LPS, 50 µL of sample aliquots were mixed with 50 µL of Griess reagent in 96-well plates and incubated at room temperature for 15 min. The absorbance (520 nm) of the mixture was measured on a microplate reader. The concentration of nitrite was calculated with the linear equation derived from the standard curve generated by known concentrations of sodium nitrite.
# BuChE from human serum = target: T4, BuChE from human serum (Homo sapiens, UniProt P06276); experiment: In vitro BuChE inhibition assay (Ellman); type: biochemical; conditions: mean ± SEM, 3 experiments, butyrylthiocholine substrate
# T4 construct: BuChE from human serum (EC 3.1.1.8); purchased Sigma; host or cells: human serum (tissue-derived)
# Description: as §2, §3
# [5] = Oxygen radical absorbance capacity assay (ORAC-FL); conditions: pH 7.4
# Description: The ORAC-FL method of Ou et al.[37], partially modified by Dávalos et al.[38], was followed, using a FLUOstar Optima (BMG Labtechnologies GmbH, Offenburg, Germany) with 485 excitation and 520 emission filters. 2,2′-Azobis-(amidinopropane) dihydrochloride (AAPH), (±)-6-hydroxy-2,5,7,8-tetramethylchromane-2-carboxylic acid (trolox) and fluorescein (FL) were purchased from Sigma-Aldrich. The reaction was carried out in 75 mM phosphate buffer (pH 7.4) and the final reaction mixture was 200 µL. […] The mixture was pre-incubated for 30 min at 37 °C and then AAPH solution (25 µL, 240 mM) was added rapidly using a multichannel pipette. The microplate was immediately placed in the reader and the fluorescence was recorded every 90 s. for 90 min. The microplate was automatically shaken prior to each reading. Samples were measured at four different concentrations (10^−1 µM). A blank (FL + AAPH in phosphate buffer) instead of the sample solution and four calibration solutions using trolox (10^−1 µM) was also used in each assay. All of the reaction mixtures were prepared in duplicate and at least three independent assays were performed for each sample. Raw data were exported from the Fluostar optima Software to an Excel sheet for further calculations. Antioxidant curves (fluorescence vs. time) were represented and the area under the curve (AUC) is calculated as: AUC =f1/f0+fi/f0+ … +f34/f0+ (f35/f0) where fo = initial fluorescence reading at 0 min and fi = fluorescence reading at time i. The net AUC is obtained by subtracting the AUC of the blank from that of a sample. The relative Trolox equivalent ORAC value is calculated as: Relative ORAC value =[(AUC sample - AUC blank)/(AUCT rolox - AUC blank)](molarity of trolox/molarity of sample)
# [6] = 10 µM compound added 1 h prior to 5 µM Aβ
# T2 sequence (P22303 32-617 isoform P22303-2 limits assumed): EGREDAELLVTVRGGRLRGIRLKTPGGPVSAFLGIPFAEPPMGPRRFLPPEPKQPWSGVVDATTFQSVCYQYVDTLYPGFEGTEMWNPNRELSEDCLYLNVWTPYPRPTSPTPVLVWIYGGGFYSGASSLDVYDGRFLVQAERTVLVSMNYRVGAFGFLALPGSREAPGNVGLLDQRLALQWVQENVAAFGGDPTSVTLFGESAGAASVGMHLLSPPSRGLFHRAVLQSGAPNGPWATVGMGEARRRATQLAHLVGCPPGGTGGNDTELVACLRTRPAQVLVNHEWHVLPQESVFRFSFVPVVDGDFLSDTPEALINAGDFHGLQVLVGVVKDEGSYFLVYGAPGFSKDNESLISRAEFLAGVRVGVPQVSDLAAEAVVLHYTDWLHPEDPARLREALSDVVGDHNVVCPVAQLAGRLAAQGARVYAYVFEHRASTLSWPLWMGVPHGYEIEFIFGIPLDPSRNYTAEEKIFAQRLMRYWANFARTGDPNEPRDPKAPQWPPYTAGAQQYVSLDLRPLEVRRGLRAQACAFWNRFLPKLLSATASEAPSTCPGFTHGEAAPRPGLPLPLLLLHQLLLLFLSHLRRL
# T3 sequence (P56817 46-501): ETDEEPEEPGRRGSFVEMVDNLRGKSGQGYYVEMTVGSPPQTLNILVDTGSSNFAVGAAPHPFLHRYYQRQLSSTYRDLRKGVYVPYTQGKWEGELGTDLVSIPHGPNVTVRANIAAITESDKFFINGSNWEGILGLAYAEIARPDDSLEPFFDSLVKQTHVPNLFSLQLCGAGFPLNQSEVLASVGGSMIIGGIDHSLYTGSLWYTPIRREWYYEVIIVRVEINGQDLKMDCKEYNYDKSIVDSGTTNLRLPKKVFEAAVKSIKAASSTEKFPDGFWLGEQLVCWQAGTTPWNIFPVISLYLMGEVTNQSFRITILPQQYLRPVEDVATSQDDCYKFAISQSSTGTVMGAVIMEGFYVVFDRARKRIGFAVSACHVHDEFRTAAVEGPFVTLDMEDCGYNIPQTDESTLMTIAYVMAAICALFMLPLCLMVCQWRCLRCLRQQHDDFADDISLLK
# T4 sequence (P06276 29-602): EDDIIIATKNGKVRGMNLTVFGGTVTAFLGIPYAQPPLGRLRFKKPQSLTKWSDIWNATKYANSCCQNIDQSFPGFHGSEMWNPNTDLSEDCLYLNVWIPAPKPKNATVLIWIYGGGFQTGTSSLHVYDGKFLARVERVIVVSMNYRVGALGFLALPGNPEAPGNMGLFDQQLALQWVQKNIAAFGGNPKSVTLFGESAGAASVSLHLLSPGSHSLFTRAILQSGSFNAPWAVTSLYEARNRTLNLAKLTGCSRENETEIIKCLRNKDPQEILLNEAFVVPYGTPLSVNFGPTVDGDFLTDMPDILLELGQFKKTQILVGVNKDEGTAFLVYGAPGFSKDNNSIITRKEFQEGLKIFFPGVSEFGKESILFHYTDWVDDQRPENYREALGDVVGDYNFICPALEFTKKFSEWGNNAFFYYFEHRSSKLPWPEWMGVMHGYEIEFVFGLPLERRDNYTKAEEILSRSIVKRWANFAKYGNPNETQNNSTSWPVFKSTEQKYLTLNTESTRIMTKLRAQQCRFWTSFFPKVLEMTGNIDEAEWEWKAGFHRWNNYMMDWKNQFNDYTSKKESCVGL
# T1 sequence (P06276 29-602): as above
smiles,measurement,setting,value
Clc1ccc(Cn2nc(OCc3cccc4ccccc34)c3cc(NCCCN4CCCCC4)ccc32)cc1Cl [Compound 3],Aβ-induced death of SH-SY5Y cells,[1]; [6],significantly reduced cell death
same,Type of Inhibition (BuChE),BuChE,M
same,Cytotoxicity on Raw 264.7 cells viability,Raw 264.7 cells [2]; 10 µM,did not show any significant cytotoxic effect
same,inhibition at 10 µM,[3],38%
same,IC50,[3],> 10 µM
same,IC50,BACE1,2.1 ± 0.2 µM
same,LPS-induced NO production (extracellular nitrite),Raw 264.7 cells [4]; 10 µM compound,able to attenuate LPS-induced NO production
same,IC50,BuChE from human serum,0.17 ± 0.05 µM
same,ORAC (Oxygen Radical Absorbance Capacity),[5],0.6 ± 0.1 μmol of Trolox equivalents/μmol of tested compound
Clc1cccc(Cn2nc(OCc3ccccc3)c3cc(NCCCN4CCCCC4)ccc32)c1Cl [Compound 2],Aβ-induced death of SH-SY5Y cells,[1]; 5 µM compound added 1 h prior to 5 µM Aβ,able to prevent cell death
same,Type of Inhibition (BuChE),BuChE,M
same,Cytotoxicity on Raw 264.7 cells viability,Raw 264.7 cells [2]; 10 µM,show cytotoxicity
same,inhibition at 10 µM,[3],27%
same,IC50,[3],> 10 µM
same,IC50,BACE1,3.2 ± 0.2 µM
same,IC50,BuChE from human serum,0.4 ± 0.04 µM
same,ORAC (Oxygen Radical Absorbance Capacity),[5],0.7 ± 0.1 μmol of Trolox equivalents/μmol of tested compound
c1ccc2cc(COc3nn(Cc4ccc5ccccc5c4)c4ccc(NCCCN5CCCCC5)cc34)ccc2c1 [Compound 6],Aβ-induced death of SH-SY5Y cells,[1]; [6],significantly reduced cell death
same,Type of Inhibition (BuChE),BuChE,M
same,Cytotoxicity on Raw 264.7 cells viability,"Raw 264.7 cells [2]; 10, 20, 30, 40 µM",did not show any significant cytotoxic effect
same,IC50,[3],9 ± 1 µM
same,IC50,BACE1,3.4 ± 0.2 µM
same,LPS-induced NO production (extracellular nitrite),Raw 264.7 cells [4]; 10 µM compound,able to attenuate LPS-induced NO production
same,LPS-induced NO production (extracellular nitrite),"Raw 264.7 cells [4]; 20, 30 and 40 µM compound",inhibited NO production
same,IC50,BuChE from human serum,3.7 ± 0.3 µM
same,ORAC (Oxygen Radical Absorbance Capacity),[5],0 μmol of Trolox equivalents/μmol of tested compound
Clc1ccc(Cn2nc(OCc3ccc4ccccc4c3)c3cc(NCCCN4CCCCC4)ccc32)cc1Cl [Compound 4],Aβ-induced death of SH-SY5Y cells,[1]; [6],significantly reduced cell death
same,Type of Inhibition (BuChE),BuChE,M
same,Cytotoxicity on Raw 264.7 cells viability,Raw 264.7 cells [2]; 10 µM,show cytotoxicity
same,inhibition at 10 µM,[3],26%
same,IC50,[3],> 10 µM
same,IC50,BACE1,1.9 ± 0.1 µM
same,IC50,BuChE from human serum,0.57 ± 0.2 µM
same,ORAC (Oxygen Radical Absorbance Capacity),[5],0.7 ± 0.1 μmol of Trolox equivalents/μmol of tested compound

# From paper PMC9477487, “Multitarget drugs as potential therapeutic agents for alzheimer’s disease. A new family of 5-substituted indazole derivatives as cholinergic and BACE1 inhibitors” (Journal of Enzyme Inhibition and Medicinal Chemistry, 2022)
